Structure (SMILES)	melting point
C[C@@H]1Cc2cc3c(cc2C(c2ccc(Cl)cc2)=NN1C1=NCCS1)OCO3	216 to 219 °C
Cc1c(CN(O)Cc2ccccc2)c(C)c(CN(O)Cc2ccccc2)c(C)c1CN(O)Cc1ccccc1	193 to 195 °C
Cc1ccc(Cl)cc1NC(=O)OC(C)(C)C	100 to 102 °C
Cc1nnc2ccc(-c3cccc(NC(=O)N(C)C)c3)nn12	237 to 239 °C
CCOC(=O)COc1cc(OC)c2c(c1S(N)(=O)=O)OC1(CCCCC1)CC2=O	188 to 190 °C
CCCCCCCCCCCCCCCc1cccc(OC)c1C(=O)O	65 to 72 °C
CCCN1C(=O)N(c2ccc(N3CCN(c4ccc(O)cc4)CC3)cc2)NC1C (stereo not drawn)	253 °C
CCO[C@H]1Cc2ccccc2[C@H]1Nc1nc(CC)c(-c2ccc(OC)cc2OC)nc1CC	120 to 121 °C
OCCOc1ccc2c(c1)oc1cc(Cl)ccc12	118 to 120 °C
CCSc1c(O[C@H]2CC[C@H](N)CC2)ccc2[nH]ncc12	157 to 158 °C
COC(=O)CSc1ccc2ccc(Oc3c(Cl)cc(C(F)(F)F)cc3OC)cc2c1	115 °C
O=C(NC1=NCCC1)Nc1ccc(Cl)cc1	147 to 150 °C
COc1ccc(C(=O)Nc2ccc(-n3nc(C(F)(F)F)cc3C(F)(F)F)cc2)cc1	205 to 207 °C
CC(C)C(=O)c1cn(Cc2c(F)cccc2F)c2sc(-c3ccccc3)c(CBr)c2c1=O	189 to 192 °C
CC(C)n1nc(C#Cc2ccccc2)ccc1=O	75.5 to 77 °C
Nc1ncnc2c1c(-c1ccc(Oc3ccccc3)cc1)cn2CCN1C(=O)c2ccccc2C1=O	111 to 112 °C
CCSC1CC(=O)CC(SCC)C1(O)c1ccccc1 (stereo not drawn)	49 to 50 °C
CCOC(=O)c1cc(C(=O)c2cccc(S(=O)(=O)F)c2)sc1NC(=O)OCC(Cl)(Cl)Cl	108 to 110 °C
CCN1c2ccccc2C=C(Br)c2ccccc21	148 °C
COc1cc(NC(C)CCCN)c2nccc(C)c2c1Oc1cccc(C(F)(F)F)c1 (stereo not drawn)	128 to 131 °C
COc1cc(-c2oc3ccc(CC(=O)NC(CC(C)C)C(N)=O)cc3c2SC)ccc1O (stereo not drawn)	220 °C
c1ccc(C(CCc2c[nH]cn2)c2ccccc2)cc1	115 to 117 °C
CCOC(=O)c1[nH]cc(Cc2cccc(F)c2C)c1-c1ccccc1	120 to 122 °C
COC(=O)c1nc(-c2ccc(Cl)cc2)n(-c2ccc(Cl)cc2Cl)n1	153 to 154 °C
Cc1noc(C)c1C(C)(O)c1ccsc1 (stereo not drawn)	93.5 to 95 °C
CCC(=O)NCCc1c(-c2ccccc2)nn2ccc3occc3c12	161 to 163 °C

Structure (SMILES)	melting point
CC12CCC(O)CC1CCC1C2CCC2(C)C(=O)CCC12F (stereo not drawn)	201 to 202 °C
CCOC(=O)CNC(=O)c1ccc(-c2ccc([N+](=O)[O-])cc2)cc1	145 to 148 °C
Cc1cc(C#N)ccc1-c1ccc(-c2nc3cc(C#N)ccc3[nH]2)cc1	269 to 270 °C
O=C(O)c1cc(CO)ccc1O	108 to 110 °C
CC(=O)OCc1cn2c(n1)CN=C(c1ccccc1F)c1cc(Cl)ccc1-2	134 to 136 °C
CCCCCCCCCCCC1CNc2cc(C(=O)O)ccc21 (racemic)	107 to 111 °C
OCC1OC(c2ccc(Cl)c(Cc3cc4ccccc4s3)c2)C(O)C(O)C1O (stereo not drawn)	153 to 154 °C
COC(=O)CN(C=O)C1c2ccccc2CCC1(C)C (stereo not drawn)	74 to 75 °C
Clc1ccc2c(N3CCCC4CCCC(N5CCCC5)C43)ccnc2c1 (stereo not drawn)	136 to 138 °C
CSc1cc(C(F)(F)F)ccc1C(=O)O	178 to 179 °C
O=C1c2ccc(OCCO)cc2C(=O)c2cc(-c3nnn[nH]3)ccc21	260 to 262 °C
CSC1=Nc2ccccc2C2=NCC(CC3CNCCC34CCCCC4)N12 (stereo not drawn)	114 to 115 °C
N#Cc1nn(-c2c(Cl)cc(C(F)(F)F)cc2Cl)c(N2CCOCC2)c1S(=O)(=O)C(F)(F)F	167 to 169 °C
O=C1NC(=S)C(=Cc2cc(O)c(O)c([N+](=O)[O-])c2)O1	245 °C
CC(=O)OC(C)(C)C(=O)Nc1ccc(Sc2ccc(N)cc2)cc1Cl	130 to 132 °C
CCc1nc2c(N)nc3cc(OCC(=O)N4CCOCC4)ccc3c2n1CC1CCOCC1	245 to 247 °C
CCOC(=O)c1ncc2[nH]c3ccccc3c2c1C	235 to 239 °C
Cn1c(-c2ccc(-n3ccnc3)cc2)cnc1[C@H](Cc1ccccn1)N(C=O)c1cc2cccnc2o1	108 to 110 °C
CCCCNc1c(C(=O)O)cnc2[nH]ncc12	225 °C
CC(C)n1c(=O)sc2cc(N)ccc21	146 to 148 °C
c1ccc2c(-c3cnc(CCC4CCCCN4)s3)c[nH]c2c1 (stereo not drawn)	155 to 157 °C
O=C1c2ccccc2SC(O)(c2ccccc2)C2CCCN12 (stereo not drawn)	137 to 141 °C
Fc1ccc2scc(Br)c2c1	79 to 80 °C
COc1cc2nc(N)nc(-c3ccc(I)cc3)c2cc1OC	240 to 242 °C
COc1cc(C)cc(-c2n[nH]cc2-c2cc(NC[C@H](C)O)nc(Cl)n2)c1	256 °C
COC(=O)N1CC(=O)Nc2cccc(F)c21	170 to 172 °C

Structure (SMILES)	melting point
O=C(O)c1[nH]c2cc(Cl)cc(Cl)c2c1C=C1CON(c2ccccc2)C1=O	> 250 °C
O=C1C(CCO)Oc2cc(F)ccc2N1Cc1cccc(Cl)c1 (stereo not drawn)	79 to 82 °C
CCCC/C(=C\C(=O)O)c1cnc(CCCC)n1Cc1ccccc1Cl	131 to 132 °C
O=C1N(Cc2ccccn2)c2ccccc2C12COc1c2ccc2c1OCCO2 (stereo not drawn)	205 to 206 °C
C=COC(=O)N=c1sc2cc(OC(F)(F)F)ccc2n1CCO	190 °C
CCOC(=O)NC(Cc1ccccc1)C(O)C(=O)O (stereo not drawn)	138 to 140 °C
N#Cc1ccc2oc3c(c(=O)c2c1)CCCC3	198 to 200 °C
CCOC(=O)N1CCC2(CC1)N=C(N)c1c(F)cccc1O2	114 to 116 °C
COc1ccccc1-c1c(=O)[nH]c2cc(Cl)c(Cl)cc2[n+]1[O-]	239 to 241 °C
O=C(O)c1ccc2oc3ccncc3c(=O)c2c1	> 300 °C
CCCCCCCCCCCCCCCCSCC(CO)OC(=O)NC (stereo not drawn)	53 to 55 °C
N#CCC(=O)Nc1ccccc1S	198 to 201 °C
CCC(CC)c1ccc(Cl)c2nc3n(c12)CCCCN3c1ccc(N(C)C)cc1C	174 to 175 °C
CC(=O)NC[C@H]1CN(c2ccc(N3CCC4(CC3)COCCO4)c(F)c2)C(=O)O1	114 to 116 °C
CCOC(=O)CN1C(=O)CSC1=NN=C(C)C	60 to 62 °C
CN1C(=C(C#N)C#N)Oc2ccccc21	198 to 200 °C
COc1ncc(S(C)(=O)=O)cc1Br	148 to 150 °C
CC1(C)CC(=O)c2ccc(OCCn3ccnc3)cc2O1	84 to 86 °C
O=C(O)C(=O)Nc1ccc2c(=O)c3c(oc2c1)C(=Cc1ccccc1)CC3	253 to 256 °C
O=C(NC(=O)c1c(F)cccc1F)Nc1cc(Cl)c(OC(F)(F)C(F)Cl)cc1Cl (stereo not drawn)	177 to 179 °C
CC(C)(Oc1ccc2c(c1)CCc1c-2ccc2c1CCC2(C)C)C(=O)O	167 to 170 °C
c1cc2c3c(ccc(OCCCN4CCCCC4)c3c1)-c1cc(OCCCN3CCCCC3)ccc1-2	92 to 93 °C
COc1cc(CCCCC2OC(=O)NC2=O)ccc1OCc1nc(-c2ccccc2)oc1C (stereo not drawn)	135 to 136 °C
CC(C)=C1CCCP1(=O)c1ccccc1 (stereo not drawn)	143 to 146 °C
Cc1cc(C#N)cc(C(=O)c2c(C(C)C)c(=O)[nH]c(=O)n2Cc2cc(F)cc(NC(=O)C(F)(F)F)c2)c1	263 to 264 °C
Cc1cc(C)cc(CC(=O)Nc2[nH]c(=O)[nH]c(=O)c2C(C)C)c1	126 to 127 °C

Structure (SMILES)	melting point
CC(C)(C)c1ccc(CCC(O)CC2CCCCC2)cc1NC(=O)CC1c2ccccc2Oc2ccccc21 (stereo not drawn)	141 to 142 °C
FC(F)(F)c1cc2ncccc2cc1Cl	137 to 139 °C
O=C1CCc2cc(N/C(=C3\C(=O)Nc4ccc([N+](=O)[O-])cc43)c3ccccc3)ccc2N1	> 300 °C
C=C(C)C(=O)Oc1ccc(/C=C/C(=O)OC)cc1	76 to 80 °C
N#Cc1ccc(NCCCN2C3CCC2CNC3)cc1	44 to 46 °C
CN(C)C(=S)SC(C[N+](=O)[O-])c1ccccc1 (stereo not drawn)	105 to 106 °C
CCc1noc(-c2cc3c(cn2)[nH]c2cccc(Oc4ccc(Cl)cn4)c23)n1	259 to 260 °C
CCOC(=O)C1=CC(C(=O)c2cc(C)ccc2O)=CN2CCc3c([nH]c4ccccc34)C12C(=O)OCC (stereo not drawn)	208 °C
O=C(O)c1csc(-c2ccccc2O)n1	268 to 269 °C
CCc1cc(C)cc(CC)c1C1C(=O)N2CCOCCN2C1=O	193 to 194 °C
CC(=O)c1ccc(S(=O)(=O)NCc2cccnc2)cc1	143 to 144 °C
Cc1c(N2CC[C@@H](C3(NC(=O)OC(C)(C)C)CC3)C2)cc(O)c2c(=O)c(C(=O)O)cn([C@@H]3C[C@@H]3F)c12	203 to 206 °C
Nc1ncc(-c2cccc(-n3cnc4cc(-c5ccoc5)ccc43)c2)cn1	222 to 223 °C
CCOc1cc2c(C)c(CCN3CCN(c4ccccc4OC)CC3)c(=O)oc2cc1OC	143 to 145 °C
O=C1Cc2cc(NC(=O)C(=O)N3CCC(CCc4ccccc4)CC3)ccc2N1	236 to 240 °C
O=S(=O)(NCC(O)(Cn1cncn1)c1ccc(Cl)cc1Cl)c1ccc2ccccc2c1 (stereo not drawn)	179 to 180 °C
CNc1cccc(NS(=O)(=O)c2ccc(N)cc2)c1	134 to 135 °C
Cc1ccc(-c2nn3cccnc3c2CC(=O)O)cc1	170 to 171 °C
CCCCC(O)CN1CCC2(CC1)CSC1=C(O2)c2ccccc2C(=O)C1=O (stereo not drawn)	160 to 163 °C
Fc1cc(-c2cc(C(F)(F)F)n3ncc(-c4cccnc4)c3n2)ccc1C(F)(F)F	162 °C
O=C(CBr)c1csc(C(F)(F)F)n1	36 to 37 °C
Cc1[nH]c(=O)[nH]c1C(=O)CC(C)C	232 to 233 °C
COc1cc(OC)nc(OC(C(=O)N[C@@H](C)C(=O)O)C(C)C)n1 (stereo partly drawn)	157 to 160 °C
CCC(C(=O)O)c1ccc2c(=O)c3ccccc3ccc2c1 (stereo not drawn)	147 to 148 °C
COc1ccc(C(=O)NCc2ccc(Br)cc2F)c(OCC(=O)O)c1	203 to 204 °C

— a melting point compilation (Tetko et al.; mined from patent text by program, amines drawn as free bases though some values may be those of a salt)
